Source: ChEMBL document CHEMBL1138437, “Synthesis and evaluation of novel neamine derivatives effectively targeting to RNA” (Bioorg Med Chem Lett, 2009)
≈ marks a conversion by molar mass, not a printed value.

Tests used:
[1] = biological target: Nucleic Acid; test: Binding affinity to biotinylated HIV1 trans-activation response element RNA by surface plasmon resonance analysis; type: nucleic-acid assay, Human immunodeficiency virus 1
[2] = tested on: Escherichia coli; test: Antibacterial activity against Escherichia coli ATCC 25922 after 18 hrs; type: functional; conditions: ATCC 25922, 18 h
[3] = tested on: Staphylococcus aureus; test: Antibacterial activity against Staphylococcus aureus ATCC 29213 after 18 hrs; type: functional; conditions: ATCC 29213, 18 h
[4] = tested on: Pseudomonas aeruginosa; test: Antibacterial activity against Pseudomonas aeruginosa ATCC 27853 after 18 hrs; type: functional; conditions: ATCC 27853, 18 h
[5] = biological target: Nucleic Acid; test: Binding affinity to A site of biotinylated 16S rRNA (unknown origin) by surface plasmon resonance analysis; type: nucleic-acid assay

Compound | Kd [1] [µM] | MIC [2] [µM] | MIC [3] [µM] | MIC [4] [µM] | Kd [5] [µM]
NC[C@H]1O[C@H](O[C@H]2[C@H](O)[C@@H](O)[C@H](N)C[C@@H]2N)[C@H](N)[C@@H](O)[C@@H]1O [NEAMINE] | 24 | 50 (≈ 16.1 µg/mL) | 50 (≈ 16.1 µg/mL) | > 100 | 19
NCCN[C@H]1[C@@H](O)[C@H](N)C[C@H](N)[C@@H]1O[C@H]1O[C@H](CN)[C@@H](O)[C@H](O)[C@H]1N | 14 | 100 (≈ 36.4 µg/mL) | > 100 | 50 (≈ 18.2 µg/mL) | 7
N=C(N)NCCC[C@H](N)C(=O)NCCN[C@H]1[C@@H](O)[C@H](N)C[C@H](N)[C@@H]1O[C@H]1O[C@H](CN)[C@@H](O)[C@H](O)[C@H]1N | 3 | 100 (≈ 52.1 µg/mL) | > 100 | > 100 | 2
NCCCC[C@H](N)C(=O)NCCN[C@H]1[C@@H](O)[C@H](N)C[C@H](N)[C@@H]1O[C@H]1O[C@H](CN)[C@@H](O)[C@H](O)[C@H]1N | 2 | 50 (≈ 24.6 µg/mL) | 25 (≈ 12.3 µg/mL) | > 100 | 1
